Measured values taken from the supplement of paper PMC10307832.

How the values were obtained:
Test in all cases: relative viability (nuclei count vs DMSO), 5 days (fraction); higher = more cells survive
Gemcitabine = compound: Nc1ccn([C@@H]2O[C@H](CO)[C@@H](O)C2(F)F)c(=O)n1 [Gemcitabine]
Procedure, shortened: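 Hoechst staining, done together with fixation and permeabilisation, marked nuclei for 4× imaging and MetaXpress counting. This followed 5 days without medium change after lung cancer cell lines, kept overnight at 37 °C in 1536-well plates, were pinned with five library-drug doses (not always all listed) spaced by √10 on vehicle-anchored plates. Viability is the ratio of treated-well to vehicle-well nuclei, expressed as a median across plates. Plates passed only at control CV below 25% with at least one doubling.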

Gemcitabine + Trametinib = compound: Nc1ccn([C@@H]2O[C@H](CO)[C@@H](O)C2(F)F)c(=O)n1 [Gemcitabine] + CC(=O)Nc1cccc(-n2c(=O)n(C3CC3)c(=O)c3c(Nc4ccc(I)cc4F)n(C)c(=O)c(C)c32)c1 [Trametinib] (partner 0.02 µM)
Procedure, shortened: (§1)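 Five library-drug doses in √10 steps were combined with a fixed anchor-drug dose, or a single drug was given alone, by pin tool to lung cancer cell lines in 1536-well plates the day after seeding. Nuclei were stained and counted after 5 days. Relative viability is the nuclei count in treated wells over that in vehicle wells, taken as the median of duplicate plates.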

Gemcitabine + Tozasertib = compound: Nc1ccn([C@@H]2O[C@H](CO)[C@@H](O)C2(F)F)c(=O)n1 [Gemcitabine] + Cc1cc(Nc2cc(N3CCN(C)CC3)nc(Sc3ccc(NC(=O)C4CC4)cc3)n2)n[nH]1 [Tozasertib] (partner 0.1 µM)
Procedure, shortened: as §1

Gemcitabine + AZD7762 = compound: Nc1ccn([C@@H]2O[C@H](CO)[C@@H](O)C2(F)F)c(=O)n1 [Gemcitabine] + NC(=O)Nc1cc(-c2cccc(F)c2)sc1C(=O)N[C@H]1CCCNC1 [AZD7762] (partner 0.2 µM)
Procedure, shortened: as §1

Cell Line | relative viability (Gemcitabine; 0.001 µM) | relative viability (Gemcitabine; 0.003162 µM) | relative viability (Gemcitabine; 0.01 µM) | relative viability (Gemcitabine; 0.03162 µM) | relative viability (Gemcitabine; 0.1 µM) | relative viability (Gemcitabine + Trametinib; first compound 0.001 µM) | relative viability (Gemcitabine + Trametinib; first compound 0.003162 µM) | relative viability (Gemcitabine + Trametinib; first compound 0.01 µM) | relative viability (Gemcitabine + Trametinib; first compound 0.03162 µM) | relative viability (Gemcitabine + Trametinib; first compound 0.1 µM) | relative viability (Gemcitabine + Tozasertib; first compound 0.001 µM) | relative viability (Gemcitabine + Tozasertib; first compound 0.003162 µM) | relative viability (Gemcitabine + Tozasertib; first compound 0.01 µM) | relative viability (Gemcitabine + Tozasertib; first compound 0.03162 µM) | relative viability (Gemcitabine + Tozasertib; first compound 0.1 µM) | relative viability (Gemcitabine + AZD7762; first compound 0.001 µM) | relative viability (Gemcitabine + AZD7762; first compound 0.003162 µM) | relative viability (Gemcitabine + AZD7762; first compound 0.01 µM) | relative viability (Gemcitabine + AZD7762; first compound 0.03162 µM) | relative viability (Gemcitabine + AZD7762; first compound 0.1 µM)
H3255 | 0.981 | 0.781 | 0.631 | 0.297 | 0.198 | 0.608 | 0.517 | 0.514 | 0.318 | 0.271 | 0.604 | 0.497 | 0.407 | 0.258 | 0.209 | 1 | 0.604 | 0.37 | 0.203 | 0.248
EPLC-272H | 1.05 | 1.01 | 0.591 | 0.113 | 0.0839 | 0.301 | 0.301 | 0.248 | 0.18 | 0.106 | 0.291 | 0.295 | 0.249 | 0.0772 | 0.0692 | 0.19 | 0.141 | 0.0918 | 0.101 | 0.0686
PC-3 [JPC-3] | 1.1 | 0.779 | 0.771 | 0.36 | 0.373 | 0.73 | 0.424 | 0.469 | 0.426 | 0.417 | 0.902 | 0.796 | 0.666 | 0.264 | 0.237 | 0.761 | 0.482 | 0.336 | 0.35 | 0.299
NCI-H1793 | 1.02 | 1.04 | 0.565 | 0.168 | 0.146 | 0.385 | 0.45 | 0.256 | 0.187 | 0.15 | 0.421 | 0.507 | 0.202 | 0.133 | 0.12 | 0.778 | 0.211 | 0.0841 | 0.161 | 0.0995
EKVX | 0.943 | 0.766 | 0.461 | 0.201 | 0.139 | 0.394 | 0.243 | 0.13 | 0.161 | 0.11 | 0.456 | 0.376 | 0.257 | 0.12 | 0.106 | 0.49 | 0.466 | 0.142 | 0.147 | 0.139
ChaGo-K-1 | 1.07 | 0.871 | 0.538 | 0.265 | 0.219 | 0.897 | 0.757 | 0.461 | 0.189 | 0.155 | 0.217 | 0.216 | 0.184 | 0.181 | 0.155 | 0.819 | 0.47 | 0.186 | 0.141 | 0.153
NCI-H23 | 0.898 | 0.299 | 0.144 | 0.146 | 0.139 | 0.277 | 0.179 | 0.121 | 0.12 | 0.1 | 0.688 | 0.225 | 0.114 | 0.129 | 0.114 | 0.154 | 0.134 | 0.0996 | 0.112 | 0.118
EMC-BAC-2 | 0.89 | 0.996 | 0.642 | 0.267 | 0.226 | 0.938 | 0.941 | 0.524 | 0.284 | 0.273 | 0.269 | 0.32 | 0.26 | 0.176 | 0.155 | 1.18 | 0.723 | 0.224 | 0.301 | 0.232
LOU-NH91 | 0.982 | 0.788 | 0.585 | 0.338 | 0.301 | 0.787 | 0.762 | 0.578 | 0.466 | 0.358 | 0.699 | 0.578 | 0.415 | 0.211 | 0.146 | 0.762 | 0.603 | 0.395 | 0.288 | 0.292
LU99A | 0.864 | 1.08 | 0.932 | 1.01 | 0.918 | 0.575 | 0.635 | 0.563 | 0.594 | 0.387 | 0.26 | 0.322 | 0.294 | 0.327 | 0.265 | 0.437 | 0.41 | 0.332 | 0.367 | 0.299
NCI-H1395 | 0.779 | 0.594 | 0.422 | 0.365 | 0.364 | 1.01 | 0.841 | 0.554 | 0.424 | 0.359 | 0.676 | 0.674 | 0.429 | 0.367 | 0.334 | 0.408 | 0.37 | 0.352 | 0.307 | 0.336
NCI-H460 | 1.03 | 0.963 | 0.774 | 0.0431 | 0.0112 | 0.105 | 0.211 | 0.0498 | 0.0169 | 0.0076 | 0.535 | – | 0.299 | 0.0246 | 0.0096 | 0.831 | 0.48 | 0.0469 | 0.026 | 0.0247
201T | 0.939 | 0.958 | 0.988 | 0.697 | 0.482 | 0.753 | 0.714 | 0.736 | 0.691 | 0.324 | 0.981 | 0.98 | 0.896 | 0.425 | 0.298 | 0.59 | 0.584 | 0.237 | 0.225 | 0.233
NCI-H1944 | 1 | 0.995 | 0.821 | 0.496 | 0.235 | 0.418 | 0.416 | 0.364 | 0.28 | 0.154 | 0.253 | 0.266 | 0.251 | 0.188 | 0.105 | 0.518 | 0.36 | 0.0907 | 0.109 | 0.086
NCI-H2405 | 0.995 | 0.66 | 0.533 | 0.268 | 0.211 | 0.689 | 0.67 | 0.457 | 0.211 | 0.211 | 0.812 | 0.709 | 0.495 | 0.221 | 0.216 | 0.518 | 0.23 | 0.193 | 0.193 | 0.195
NCI-H1703 | 0.699 | 0.264 | 0.138 | 0.126 | 0.115 | – | – | – | – | – | – | – | – | – | – | 0.118 | 0.104 | 0.105 | 0.0773 | 0.0798
